Results published in EP0533790B1, “NEW SALT FORM OF 5-DIFLUOROMETHOXY-2- [3,4-DIMETHOXY-2-PYRIDYL)METHYLSULFINYL-1H-BENZIMIDAZOLE” (BYK GULDEN LOMBERG CHEMISCHE FABRIK GMBH, priority 1990, dated 1991).

Columns and labels:
Format in all cases: physicochemical
[1] = Limiting solubility in phosphate buffer, measured in the presence of undissolved solid; settings: 22°C; for Grenzlöslichkeit: pH 7,4, in the presence of undissolved solid
Solubility in acetone = settings: solvent acetone (for the 1,5-Hydrat also other lower ketones)
[2] = Hygroscopicity / water uptake on storage
Method: So nimmt es bei Temperaturen von 20 bzw. 30°C und einer relativen Luftfeuchtigkeit von 80 % bei der Lagerung kein Wasser auf (keine Umwandlung in das 1,5-Hydrat!).

| SMILES | Grenzlöslichkeit [1] | Löslichkeit in Aceton (Solubility in acetone) | Grenzlöslichkeit relative to the 1,5-Hydrat ([1]; pH 7,4, ratio versus the 1,5-Hydrat) | Hygroskopizität [2] | Wasseraufnahme bei der Lagerung ([2]; 20 or 30°C, relative humidity 80 %, storage) |
| --- | --- | --- | --- | --- | --- |
| COc1ccnc(C[S+]([O-])c2nc3ccc(OC(F)F)cc3[nH]2)c1OC (stereo not shown) [1,5-Hydrat, 5-Difluormethoxy-2-[(3,4-dimethoxy-2-pyridyl)methylsulfinyl]-1H-benzimidazol-Natriumsalz-1,5-hydrat, reference compound] | 6,2 x 10^-4 mol/l | leichtlöslich | – | – | – |
| COc1ccnc(C[S+]([O-])c2nc3ccc(OC(F)F)cc3[nH]2)c1OC (stereo not shown) [Monohydrat, 5-Difluormethoxy-2-[(3,4-dimethoxy-2-pyridyl)methylsulfinyl]-1H-benzimidazol-Natriumsalz-monohydrat] | 0.0013 mol/L | schwer löslich | etwa doppelt so große | nicht hygroskopisch | kein Wasser |
